Assays:
[1] = tested on: ICR(CD-1) mice; test: Reversal of Phencyclidine (PCP)-Induced Hyperlocomotor Activity in Mice; format: in vivo, mouse; details: i.p.
From the text: This assay for Reversal of Phencyclidine (PCP)-Induced Hyperlocomotor Activity in Mice is run substantially as the Reversal of Phencyclidine (PCP)-Induced Hyperlocomotor Activity in Rats assay provided above, using mice instead of rats and with the changes noted below.
Motor activity is monitored by placing individual male, ICR(CD-1), (Harlan, Indianapolis, Ind.) mice in transparent, plastic shoe-box cages of the dimensions 45×25×20 cm, with 0.5 cm depth of wood chips as bedding, and plastic lid on top of the cage. Motor monitors (Kinder Scientific) consist of a rectangular rack of 12 photobeams arranged in an 8×4 formation, (or a high density grouping of 22 in a 15×7 pattern) at a height of 2.5 cm. The shoe box cage is placed inside of these racks, with the racks on a 3 foot high tabletop in an isolated room. A compound of the present invention is dosed (intraperitoneal route, non-prodrug) usually within a range of 0.3-30 mg/kg; though higher doses may be used, 30 minutes prior to a 7.5 mg/kg challenge dose of phencyclidine (PCP). On the test day, mice are placed in the test cage and allowed to acclimate for 45 minutes prior to PCP challenge; mice are monitored for an additional 60 minutes following PCP administration.
Power analyses have determined that 7-8 mice per group are needed to have appropriate statistical power for detecting treatment differences (power=0.8).

[2] = biological target: T1, human mGlu2 receptor (Homo sapiens, UniProt Q14416); test: Human mGlu2 Agonist FLIPR Assay; format: cell-based; details: hmGlu2 FLIPR assay, AV-12 cells, relative EC50
T1 construct: expressed in transfected cells; co-transfected with rat EAAT1 and Galpha15
From the text: AV-12 cell lines, derived from Syrian Hamster fibroblasts and stably expressing the human mGlu2 receptor and co-transfected with the rat glutamate transporter EAAT 1 (Excitatory Amino Acid Transporter 1) and the Gα15 subunit, are used for these studies. The expression of Gα15 allows Gi-coupled receptors to signal through the phospholipase C pathway, resulting in the ability to measure receptor activation by a fluorometric calcium response assay. […]
Intracellular calcium levels are monitored before and after the addition of compounds using a Fluorometric Imaging Plate Reader (FLIPR, Molecular Devices). […] Results are analyzed using Prism v4.03 (GraphPad Software). […] After taking an initial 5-sec fluorescent read on the FLIPR instrument, a compound of the present invention is added to the cell plate (50 μL per well). […] The compound effect is measured as maximal minus minimal peak heights in relative fluorescent units (RFUs) corrected for basal fluorescence measured in the absence of glutamate. […] Agonist effects are quantified as percent stimulation induced by compound alone relative to the maximal glutamate response. All data are calculated as relative EC50 values using a four-parameter logistic curve fitting program (ActivityBase v5.3.1.22).

[3] = both, human, pH 7.4
Procedure: Liver S9 fractions are obtained from Xenotech LLC (Lenexa, Mo.). The lot is from a pool of two donors. The liver S9 fraction is prepared and diluted using a homogenization buffer consisting of 50 mM Tris, pH 7.4 at 4° C. and 150 mM potassium chloride without EDTA. Prodrug compounds are incubated in the liver homogenate for 2 hours at 37° C., after which the concentration of compound is determined by LC/MS/MS. Hydrolysis of Clopidogrel to Clopidogrel Carboxylic Acid is utilized as an assay positive control.
A mobile phase gradient is utilized starting mobile phase ratio A/B of 99.9/0.1 and finishing at 1/99.

T1 sequence (Q14416 19-872): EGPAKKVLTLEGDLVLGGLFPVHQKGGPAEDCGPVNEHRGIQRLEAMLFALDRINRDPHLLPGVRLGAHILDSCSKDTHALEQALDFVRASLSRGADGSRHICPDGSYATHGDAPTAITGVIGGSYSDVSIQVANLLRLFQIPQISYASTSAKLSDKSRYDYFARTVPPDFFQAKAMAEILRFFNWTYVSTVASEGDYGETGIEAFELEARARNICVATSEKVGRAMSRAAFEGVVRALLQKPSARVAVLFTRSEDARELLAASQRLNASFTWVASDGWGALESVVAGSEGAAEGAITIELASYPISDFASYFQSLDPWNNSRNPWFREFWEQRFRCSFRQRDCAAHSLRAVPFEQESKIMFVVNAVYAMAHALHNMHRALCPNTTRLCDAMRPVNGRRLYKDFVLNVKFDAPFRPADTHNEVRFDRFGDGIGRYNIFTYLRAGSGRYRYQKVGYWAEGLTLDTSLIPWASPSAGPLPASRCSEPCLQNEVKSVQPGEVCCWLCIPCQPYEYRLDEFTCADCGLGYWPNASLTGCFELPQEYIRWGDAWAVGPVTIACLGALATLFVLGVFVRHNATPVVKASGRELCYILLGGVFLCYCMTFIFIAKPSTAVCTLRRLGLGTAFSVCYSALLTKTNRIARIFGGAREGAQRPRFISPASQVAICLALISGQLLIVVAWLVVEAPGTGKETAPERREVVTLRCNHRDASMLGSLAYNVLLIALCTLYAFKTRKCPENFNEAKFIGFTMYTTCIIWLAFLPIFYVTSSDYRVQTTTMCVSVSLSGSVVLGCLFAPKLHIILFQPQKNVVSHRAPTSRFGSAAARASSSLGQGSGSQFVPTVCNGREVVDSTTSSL

| SMILES | inhibition of PCP evoked ambulations ([1]; multiple dose experiment, 10 mg/kg dose) | inhibition of PCP evoked ambulations ([1]; multiple dose experiment, 100 mg/kg dose) | inhibition of PCP evoked ambulations ([1]; single dose experiment of 10 mg/kg) | EC50 [2] | Hydrolysis of Clopidogrel to Clopidogrel Carboxylic Acid [3] |
| --- | --- | --- | --- | --- | --- |
| N[C@]1(C(=O)O)C[C@H](Sc2ccccc2)[C@@H]2[C@@H](C(=O)O)[C@@H]21 (racemic) [1SR,2RS,4SR,5SR,6SR-2-amino-4-(phenylthio)-bicyclo[3.1.0]hexane-2,6-dicarboxylic acid] | 5±10% | 19±8% | 18±11% | > 25 µM | – |
| COC(=O)[C@H](c1ccccc1Cl)N1CCc2sccc2C1 [Clopidogrel] | – | – | – | – | 73.0% |
